Measured values taken from PubChem BioAssay (NCI).
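How tested: cells in 96-well plates exposed to compound for 48 hours at five concentrations. TGI marks complete inhibition of growth.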 Where a SMILES comes first, the peptide text is derived from it. The star is where a group is joined. Cbz = O=C(OCc1ccccc1)*; OBn = c1ccc(CO*)cc1

Tests used:
Assay in all cases: DTP human tumour cell line panel, 48 h
[1] = test system: HCT-15 colon
[2] = test system: HL-60(TB) leukemia
[3] = test system: HOP-62 NSCLC
[4] = test system: HS 578T breast
[5] = test system: IGROV1 ovarian
[6] = test system: SR leukemia
[7] = test system: SW-620 colon
[8] = test system: DU-145 prostate
[9] = test system: NCI-H522 lung
[10] = test system: SF-295 CNS

Structure (SMILES)	TGI [1] [µM]	TGI [2] [µM]	TGI [3] [µM]	TGI [4] [µM]	TGI [5] [µM]	TGI [6] [µM]	TGI [7] [µM]	TGI [8] [µM]	TGI [9] [µM]	TGI [10] [µM]
COC(=O)C(Cc1ccc(O)cc1)NC(=O)C(CC(=O)OCc1ccccc1)NC(=O)OCc1ccccc1 (stereo unspecified) (Cbz-Asp(OBn)-Tyr-OMe; configuration not given here)	33.7	52.7	34.6	69.6	31.1	66.3	44.8			
COC(=O)c1cc(C#N)[nH]c1-c1ccc(C)s1	> 100		> 100			> 100	> 100	> 100	89.7	> 100
c1ccc2c(c1)CCc1cc3cc4c(nc3nc1-2)-c1ccccc1CC4	> 100	> 100	> 100		> 100	> 100	> 100		> 100	> 100
NCCNc1cccc2ccccc12	> 100	> 100	> 100		> 100	> 100	> 100		> 100	> 100
CC(C)c1ccc(/C=C2\CSCC3=C2NC(=S)NC3c2ccc(C(C)C)cc2)cc1 (stereo unspecified)	> 100	> 100	> 100		> 100	> 100	> 100	> 100	> 100	> 100
O=c1[nH]nc(-c2ccccc2)n1/N=C/c1c(O)ccc2ccccc12	> 100		> 100	50.4	> 100	> 100	> 100	> 100	> 100	82.4
O=C(CCCCCCCCC(=O)N1C(=O)CC(=O)N(c2cccc(Cl)c2)C1=S)N1C(=O)CC(=O)N(c2cccc(Cl)c2)C1=S	> 100		> 100	> 100		67.8		> 100	71.1	> 100
COC(=O)n1c(=O)n(-c2ccccc2)c(=O)n1C(=O)OC	> 100	> 100		> 100	> 100	> 100	> 100	> 100	> 100	
O=c1c(C=Nc2ccc([N+](=O)[O-])cc2)c(O)n(-c2ccccc2)c(=O)n1-c1ccccc1	> 100		> 100	> 100	> 100	> 100	> 100		> 100	> 100
COc1cccc(N(CN2CC=CC2=O)C(C)=O)c1	> 100	> 100	> 100	> 100	> 100		> 100	> 100	> 100	> 100
CN(C)Cc1cc(O)c(O)c(CN(C)C)c1	> 100	92	> 100	> 100	> 100		> 100	> 100	> 100	> 100
C=C(CC[C@@H](C(=O)O)[C@H]1[C@H](O)C[C@@]2(C)C3=CC[C@@H](C(=C)C)[C@](C)(CCC(=O)O)C3=CC[C@]12C)C(C)C	31.4	36		42.2			55.5	38.9	38.3	31.4
